Results reported in patent publication US20260240878A1, “PTP1B/TC-PTP DUAL INHIBITORS AND PROTEIN DEGRADERS” (Purdue Research Foundation, priority 2023, published 2026).
*1 amine or outer side, *2 acyl side, *3 side chain or, on linkers, in order; H or OH if unused. Where a SMILES comes first, the peptide text is derived from it. [ ]: non-standard residue; d: D form. The star is where a group is joined. NHBn(4-(4-Me-thiazol-5-yl)) = Cc1ncsc1-c1ccc(CN*)cc1; NHCH2(1,3-C6H4)CH2CO = O=C(Cc1cccc(CN[*:1])c1)[*:2]; F2Pmp = N[C@@H](Cc1ccc(C(F)(F)P(=O)(O)O)cc1)C(=O)O; Phenylacetyl(4-OH,3-OMe) = COc1cc(CC(=O)*)ccc1O; Benzoyl(3-Br,4-Me) = Cc1ccc(C(=O)*)cc1Br; Hyp = O=C(O)[C@@H]1C[C@@H](O)CN1; X2 = O=C(CCN1CCN([*:1])CC1)[*:2]; X3 = O=C(CCC1CCN([*:1])CC1)[*:2]; Tle = CC(C)(C)[C@H](N)C(=O)O; 4Amb = NCc1ccc(C(=O)O)cc1; PEG1 = NCCOCCC(=O)O

Assays:
TC-PTP [1] = biological target: T1, TC-PTP (Homo sapiens, UniProt P17706); assay: Degradation assay in HEK293 cells (immunoblotting); type: cell-based; set-up: endogenous in cells; host or cells: HEK293; conditions: 0.2 μM degrader, 16 hours, read-out: % Protein Degradation TC-PTP
T1 sequence (P17706 1-415): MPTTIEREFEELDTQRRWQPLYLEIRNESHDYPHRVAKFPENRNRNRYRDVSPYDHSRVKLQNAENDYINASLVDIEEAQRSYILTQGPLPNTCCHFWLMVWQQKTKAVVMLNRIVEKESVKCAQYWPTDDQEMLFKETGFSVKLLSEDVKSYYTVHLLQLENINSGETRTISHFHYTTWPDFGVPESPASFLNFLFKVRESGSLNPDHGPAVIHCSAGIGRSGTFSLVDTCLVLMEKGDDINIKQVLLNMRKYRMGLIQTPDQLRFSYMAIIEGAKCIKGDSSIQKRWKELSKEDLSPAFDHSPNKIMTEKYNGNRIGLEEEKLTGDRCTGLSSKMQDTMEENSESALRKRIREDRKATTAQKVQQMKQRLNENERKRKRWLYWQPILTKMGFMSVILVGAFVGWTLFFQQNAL
Procedure: (§1) HEK293. MIAPaCa-2, HepG2, U2OS, H116, MEF, B16F10, and MC38 cells, were grown in DMEM, while Jurkat and H358 cells were grown in RPMI 1640 supplemented with 10% fetal bovine serum, penicillin (50 units/mL), and streptomycin (50 μg/mL) in a 37° C. incubator containing 5% CO2. 20 ng/ml human (Biolegend #713906) or mouse (Biolegend #714006) Interferon-γ were used for JAK/STAT pathway stimulation.
(§2) Tissues or cultured cells were lysed with ice-cold lysis buffer (50 mM Tris (pH 8.0, 150 mM NaCl, 10% Glycerol, 1% Triton-X-100) supplied with phosphatase inhibitor (Bimake) and protease inhibitor mixture (Roche Applied Science). Equal amounts of protein were resolved by SDS-PAGE, transferred to nitrocellulose membrane, and subjected to immunoblotting. Antibodies used in this study include anti-following proteins: pSTAT1^Tyr701 (Cell Signaling Technology #9167, 1:3000), GAPDH (Cell Signaling Technology #97166, 1:5000), pJAK1^Tyr1034/1035 (Cell Signaling Technology #74129, 1:1000), pJAK2^Tyr1007/1008 (Cell Signaling Technology #3776, 1:1000), TC-PTP (Abcam #ab180764, 1:3000). PTP1B (Abcam #ab244207, 1:1500).
(§3) Degradation assay was conducted in HEK293 cells with 1 μM degrader and 24 hours incubation.
(§4) The degradation assay was conducted in HEK293 cells with 0.2 μM degrader and 16 hours incubation.

PTP1B [2] = biological target: T2, PTP1B (Homo sapiens, UniProt P18031); assay: Degradation assay in HEK293 cells (immunoblotting); type: cell-based; set-up: endogenous in cells; host or cells: HEK293; conditions: 0.2 μM degrader, 16 hours
T2 sequence (P18031 1-435): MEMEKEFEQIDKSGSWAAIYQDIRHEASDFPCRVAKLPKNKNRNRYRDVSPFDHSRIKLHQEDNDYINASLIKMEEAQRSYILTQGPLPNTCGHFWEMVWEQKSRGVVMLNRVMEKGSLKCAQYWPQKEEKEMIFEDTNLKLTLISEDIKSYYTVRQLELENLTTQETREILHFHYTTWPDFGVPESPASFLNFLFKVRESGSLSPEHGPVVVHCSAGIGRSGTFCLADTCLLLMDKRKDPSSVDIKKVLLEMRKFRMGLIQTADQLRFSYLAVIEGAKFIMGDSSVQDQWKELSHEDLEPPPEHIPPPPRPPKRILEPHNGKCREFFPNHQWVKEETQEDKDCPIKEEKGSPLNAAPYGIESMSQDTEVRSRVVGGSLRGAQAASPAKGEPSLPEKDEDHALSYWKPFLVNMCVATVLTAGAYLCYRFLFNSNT
Procedure: as §1, §2, §3, §4

TC-PTP [3] = biological target: T1, TC-PTP; assay: PTP activity assay with pNPP substrate (IC50, Ki, mode of inhibition); type: biochemical; conditions: pNPP 2 mM, pH 7.0, 25° C.; read-out: IC50, nM TC-PTP
Procedure: (§5) PTP activity was assayed using p-nitrophenyl phosphate (pNPP) as a substrate in DMG buffer (50 mM DMG. pH 7.0, 1 mM EDTA, 150 mM NaCl, 2 mM DTT, 0.1 mg/mL BSA) at 25° C. The assays were performed in 96-well plates. Normally, to determine the IC50 values, the reaction was initiated by the addition of enzyme (for PTP1B and TCPTP, the final concentration was 0.4 nM, for other PTPs, the final concentration was 10 nM) to a reaction mixture (0.2 mL) containing 2 mM (Km for the substrate) pNPP with various concentrations of inhibitors (see FIG. 1). The reaction rate was measured using a SpectraMax Plus 384 Microplate Spectrophotometer (Molecular Devices). Data were fitted using SigmaPlot Enzyme Kinetics Module (Systat Software, Inc.). To determine the mode of inhibition, the reactions were initiated by the addition of enzyme (final concentration for TC-PTP and PTP1B was 0.4 nM) to the reaction mixtures (0.2 mL) containing various concentrations of pNPP with different concentrations of the inhibitor. Data were fitted using SigmaPlot Enzyme Kinetics Module (Systat Software. Inc.).

PTP1B [4] = biological target: T2, PTP1B; assay: as above; type: biochemical; conditions: pNPP 2 mM, pH 7.0, 25° C.; read-out: IC50, nM PTP1B
Procedure: as §5

Row | Compound | percent TC-PTP degradation at 0.2 µM (TC-PTP [1]) [%] | % Protein Degradation PTP1B (PTP1B [2]) [%] | IC50 (TC-PTP [3]) [nM] | IC50 (PTP1B [4]) [nM]
1 | COc1cc(CC(=O)N[C@@H](Cc2ccccc2)C(=O)N[C@@H](Cc2ccc(C(F)(F)P(=O)(O)O)cc2)C(=O)N[C@@H](CCCCNC(=O)c2ccc(C)c(Br)c2)C(=O)NCCOCCC(=O)N[C@H](C(=O)N2C[C@H](O)C[C@H]2C(=O)NCc2ccc(-c3scnc3C)cc2)C(C)(C)C)ccc1O [Compound 28, ((4-((2S,5S,15S)-5-(4-(3-bromo-4-methylbenzamido)butyl)-15-((2S,4R)-4-hydroxy-2-((4-(4-methylthiazol-5-yl)benzyl)carbamoyl)pyrrolidine-1-carbonyl)-2-((S)-2-(2-(4-hydroxy-3-methoxyphenyl)acetamido)-3-phenylpropanamido)-16,16-dimethyl-3,6,13-trioxo-10-oxa-4,7,14-triazaheptadecyl)phenyl)difluoromethyl)phosphonic Acid] ({Phenylacetyl(4-OH,3-OMe)}-F[F2Pmp]K(Benzoyl(3-Br,4-Me))[PEG1][Tle][Hyp]-{NHBn(4-(4-Me-thiazol-5-yl))}) | 47 | 45 | 11.2 ± 1.3 | 15.4 ± 3.3
2 | COc1cc(CC(=O)N[C@@H](Cc2ccccc2)C(=O)N[C@@H](Cc2ccc(C(F)(F)P(=O)(O)O)cc2)C(=O)N[C@@H](CCCCNC(=O)c2ccc(C)c(Br)c2)C(=O)NCc2cccc(CC(=O)N[C@H](C(=O)N3C[C@H](O)C[C@H]3C(=O)NCc3ccc(-c4scnc4C)cc3)C(C)(C)C)c2)ccc1O [Compound 48, ((4-((S)-3-(((S)-6-(3-bromo-4-methylbenzamido)-1-((3-(2-(((S)-1-((2S,4R)-4-hydroxy-2-((4-(4-methylthiazol-5-yl)benzyl)carbamoyl)pyrrolidin-1-yl)-3,3-dimethyl-1-oxobutan-2-yl)amino)-2-oxoethyl)benzyl)amino)-1-oxohexan-2-yl)amino)-2-((S)-2-(2-(4-hydroxy-3-methoxyphenyl)acetamido)-3-phenylpropanamido)-3-oxopropyl)phenyl)difluoromethyl)phosphonic Acid] ({Phenylacetyl(4-OH,3-OMe)}-F[F2Pmp]K(Benzoyl(3-Br,4-Me))[NHCH2(1,3-C6H4)CH2CO][Tle][Hyp]-{NHBn(4-(4-Me-thiazol-5-yl))}) | 70 | 75 | 11.5 ± 0.6 | 16.7 ± 3.3
3 | COc1cc(CC(=O)N[C@@H](Cc2ccccc2)C(=O)N[C@@H](Cc2ccc(C(F)(F)P(=O)(O)O)cc2)C(=O)N[C@@H](CCCCNC(=O)c2ccc(C)c(Br)c2)C(=O)NCc2ccc(C(=O)N[C@H](C(=O)N3C[C@H](O)C[C@H]3C(=O)NCc3ccc(-c4scnc4C)cc3)C(C)(C)C)cc2)ccc1O [Compound 54, ((4-((S)-3-(((S)-6-(3-bromo-4-methylbenzamido)-1-((4-(((S)-1-((2S,4R)-4-hydroxy-2-((4-(4-methylthiazol-5-yl)benzyl)carbamoyl)pyrrolidin-1-yl)-3,3-dimethyl-1-oxobutan-2-yl)carbamoyl)benzyl)amino)-1-oxohexan-2-yl)amino)-2-((S)-2-(2-(4-hydroxy-3-methoxyphenyl)acetamido)-3-phenylpropanamido)-3-oxopropyl)phenyl)difluoromethyl)phosphonic Acid] ({Phenylacetyl(4-OH,3-OMe)}-F[F2Pmp]K(Benzoyl(3-Br,4-Me))[4Amb][Tle][Hyp]-{NHBn(4-(4-Me-thiazol-5-yl))}) | 37 | 24 | 21.3 ± 1.7 | 51.2 ± 14.4
4 | COc1cc(CC(=O)N[C@@H](Cc2ccccc2)C(=O)N[C@@H](Cc2ccc(C(F)(F)P(=O)(O)O)cc2)C(=O)N[C@@H](CCCCNC(=O)c2ccc(C)c(Br)c2)C(=O)N2CCN(CCC(=O)N[C@H](C(=O)N3C[C@H](O)C[C@H]3C(=O)NCc3ccc(-c4scnc4C)cc3)C(C)(C)C)CC2)ccc1O [Compound 56, ((4-((S)-3-(((S)-6-(3-bromo-4-methylbenzamido)-1-(4-(3-(((S)-1-((2S,4R)-4-hydroxy-2-((4-(4-methylthiazol-5-yl)benzyl)carbamoyl)pyrrolidin-1-yl)-3,3-dimethyl-1-oxobutan-2-yl)amino)-3-oxopropyl)piperazin-1-yl)-1-oxohexan-2-yl)amino)-2-((S)-2-(2-(4-hydroxy-3-methoxyphenyl)acetamido)-3-phenylpropanamido)-3-oxopropyl)phenyl)difluoromethyl)phosphonic Acid] ({Phenylacetyl(4-OH,3-OMe)}-F[F2Pmp]K(Benzoyl(3-Br,4-Me))[X2][Tle][Hyp]-{NHBn(4-(4-Me-thiazol-5-yl))}) | 14 | 30 | 12 ± 0.8 | 13.7 ± 1.9
5 | COc1cc(CC(=O)N[C@@H](Cc2ccccc2)C(=O)N[C@@H](Cc2ccc(C(F)(F)P(=O)(O)O)cc2)C(=O)N[C@@H](CCCCNC(=O)c2ccc(C)c(Br)c2)C(=O)N2CCC(CCC(=O)N[C@H](C(=O)N3C[C@H](O)C[C@H]3C(=O)NCc3ccc(-c4scnc4C)cc3)C(C)(C)C)CC2)ccc1O [Compound 58, ((4-((S)-3-(((S)-6-(3-bromo-4-methylbenzamido)-1-(4-(3-(((S)-1-((2S,4R)-4-hydroxy-2-((4-(4-methylthiazol-5-yl)benzyl)carbamoyl)pyrrolidin-1-yl)-3,3-dimethyl-1-oxobutan-2-yl)amino)-3-oxopropyl)piperidin-1-yl)-1-oxohexan-2-yl)amino)-2-((S)-2-(2-(4-hydroxy-3-methoxyphenyl)acetamido)-3-phenylpropanamido)-3-oxopropyl)phenyl)difluoromethyl)phosphonic Acid] ({Phenylacetyl(4-OH,3-OMe)}-F[F2Pmp]K(Benzoyl(3-Br,4-Me))[X3][Tle][Hyp]-{NHBn(4-(4-Me-thiazol-5-yl))}) | 32 | 26 | 8 ± 0.7 | 8.9 ± 0.5
